{
  "source": "patent US20260125400A1",
  "about": "“TYK2 DEGRADERS AND USES THEREOF” (Kymera Therapeutics, Inc., priority 2023, published 2026)",
  "data": [
    {"molecular_target": "T1, TYK2 (Homo sapiens, UniProt P29597)", "T1 construct": "Degradation of TYK2 in cells was quantitatively measured using Meso Scale Discovery (MSD) technology; endogenous in cells; host or cells: OCI-LY10", "T1 sequence (P29597 whole entry)": "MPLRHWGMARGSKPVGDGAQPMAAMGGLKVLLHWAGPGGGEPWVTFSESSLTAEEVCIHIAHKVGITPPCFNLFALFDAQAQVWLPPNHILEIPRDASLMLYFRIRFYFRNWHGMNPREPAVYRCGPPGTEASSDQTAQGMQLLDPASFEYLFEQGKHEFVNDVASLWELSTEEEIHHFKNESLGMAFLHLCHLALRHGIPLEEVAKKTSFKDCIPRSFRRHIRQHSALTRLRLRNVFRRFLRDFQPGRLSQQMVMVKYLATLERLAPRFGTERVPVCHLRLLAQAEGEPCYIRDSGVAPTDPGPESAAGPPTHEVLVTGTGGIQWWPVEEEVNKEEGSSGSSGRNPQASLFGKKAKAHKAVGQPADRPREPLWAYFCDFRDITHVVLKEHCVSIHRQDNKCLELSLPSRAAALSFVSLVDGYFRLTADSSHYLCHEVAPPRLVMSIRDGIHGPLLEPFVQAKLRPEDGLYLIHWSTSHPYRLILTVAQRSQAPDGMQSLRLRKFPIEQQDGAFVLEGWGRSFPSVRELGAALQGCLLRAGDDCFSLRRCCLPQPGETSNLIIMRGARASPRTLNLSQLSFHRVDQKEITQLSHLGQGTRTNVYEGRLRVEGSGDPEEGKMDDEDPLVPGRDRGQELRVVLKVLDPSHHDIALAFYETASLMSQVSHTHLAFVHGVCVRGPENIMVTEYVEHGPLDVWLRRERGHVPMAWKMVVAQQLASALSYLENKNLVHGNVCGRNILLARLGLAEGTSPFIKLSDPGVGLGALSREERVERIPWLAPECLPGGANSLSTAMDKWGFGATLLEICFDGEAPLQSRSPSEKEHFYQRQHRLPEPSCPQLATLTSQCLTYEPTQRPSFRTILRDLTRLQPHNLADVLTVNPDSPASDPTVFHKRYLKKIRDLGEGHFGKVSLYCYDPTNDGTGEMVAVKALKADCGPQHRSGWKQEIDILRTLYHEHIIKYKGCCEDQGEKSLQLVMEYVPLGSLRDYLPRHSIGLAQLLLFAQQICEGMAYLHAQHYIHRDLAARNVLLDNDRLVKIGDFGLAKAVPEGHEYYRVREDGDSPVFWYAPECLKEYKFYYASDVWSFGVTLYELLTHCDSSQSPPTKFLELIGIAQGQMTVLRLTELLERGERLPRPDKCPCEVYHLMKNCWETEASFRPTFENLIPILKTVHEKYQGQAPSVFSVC", "experiment": "TYK2 MSD degradation in OCI-LY10 cells", "assay_type": "cell-based", "conditions": "OCI-LY10 cells, 4 to 24 hours incubation", "procedure": "(§1) Example 7. TYK2 MSD Degradation\n(§2) Degradation of TYK2 in cells was quantitatively measured using Meso Scale Discovery (MSD) technology. OCI-LY10 cells were seeded in 96-well plates with a density of 0.4 million cells per well in 100 μl fresh media. Compounds were then added to the assay plates with a final top concentration of 1 to 10 μM in a 1:3 dilution series with total of 9 doses. The assay plates were then incubated for 4 to 24 hours at 37° C. under […]. The assay plates were then centrifuged for 5 minutes, and the cell pellets were treated with 100 μl/well RIPA lysis buffer (Boston Bioproducts, BP-115D) with protease and phosphatase inhibitors (Roche, 05892791001 and 04906837001). To prepare MSD assay plates (MSD, L15XA), the plates were coated with the capture antibody (Santa Cruz Biotechnology, SC-5271) in PBS, at 40 μl/well. The plates were then incubated overnight at 4° C., washed 3 times with 150 μl/well TBST buffer (Cell Signaling Technology, 9997S) and blocked with 150 μl/well blocking buffer (MSD, R93BA-4). Cell lysates were then added to MSD assay plates and the plates were incubated at room temperature for 1 hour. The plates were then washed 3 times with 150 μl/well TBST buffer and 25 μl/well primary detection antibody (Cell Signaling Technology, #9312). The assay plates were then incubated at room temperature for 1 hour, washed 3 times with 150 μl/well TBST buffer, and 25 μl/well secondary detection antibody, SULFO-TAG anti-rabbit antibody (MSD, R32AB-1) were added. The assay plates were then incubated at room temperature for 1 hour, washed 3 times with 150 μl/well TB ST buffer, and 150 μl/well MSD reading buffer (MSD, R92TC-2) were added. The plates were then analyzed by an MSD reader. The data was analyzed by GraphPad Prism and the dose dependent TYK2 degradation was fit using the four-parameter inhibitor vs. response nonlinear regression.\n(§3) The letter codes for TYK2 DC50 include: A (<1 nM); B (i to <10 nM); C (10 to 100 nM); D (>100 nM); and E (not tested). The letter codes for TYK2 Dmax % include: A (>90%); B (90 to >75%); C (75 to 50%); D (<50%); and E (not tested).", "values": [
      {"smiles": "CNc1cc(N2CCc3c(-c4ccc(CN5CCC(N6CCC(CC#Cc7ccc8c(c7)n(C)c(=O)n8C7CCC(=O)NC7=O)CC6)C(F)(F)C5)cn4)cccc32)nn2c(C(=O)N[C@@H]3C[C@@H]3F)cnc12", "note": "(stereo partly drawn) [I-469]", "TYK2 MSD OCI-LY10 Dmax %": "B (B (90 to >75%))"},
      {"smiles": "CNc1cc(N2CCc3c(C#CCN4CCC(N5CCC(C6CCN(c7ccc8c(c7)n(C)c(=O)n8C7CCC(=O)NC7=O)CC6)CC5)C(F)(F)C4)cccc32)nn2c(C(=O)N[C@@H]3C[C@@H]3F)cnc12", "note": "(stereo partly drawn) [I-467]", "TYK2 MSD OCI-LY10 Dmax %": "B (B (90 to >75%))"},
      {"smiles": "CNc1cc(N2CCc3c(-c4ccc(CN5CC6(CCN(Cc7c(C)ccc(N8CCC(=O)NC8=O)c7C)CC6(F)F)C5)cn4)cccc32)nn2c(C(=O)N[C@@H]3C[C@@H]3F)cnc12", "note": "[I-458]", "TYK2 MSD OCI-LY10 Dmax %": "D (D (<50%))"},
      {"smiles": "CNc1cc(N2CCc3c(N4CC(CN5CCC6(CCN(C(=O)c7ccc(Cl)c(N8CCC(=O)NC8=O)c7)CC6)C(F)(F)C5)C4)cccc32)nn2c(C(=O)N[C@@H]3C[C@@H]3F)cnc12", "note": "[I-783]", "TYK2 MSD OCI-LY10 Dmax %": "B (B (90 to >75%))"},
      {"smiles": "CNc1cc(-c2cn(CC3CCN(CCC4CCN(C(=O)c5ccc(Cl)c(N6CCC(=O)NC6=O)c5)CC4)CC3)c3ccccc23)nn2c(C(=O)N[C@@H]3C[C@@H]3F)cnc12", "note": "[I-771]", "TYK2 MSD OCI-LY10 Dmax %": "B (B (90 to >75%))"},
      {"smiles": "CNc1cc(N2CCc3c(-c4ccc(N5CCN(CC6CCN(c7ccc(Cl)c(C8CCC(=O)NC8=O)c7)CC6)CC5)cn4)cccc32)nn2c(C(=O)NC3CC3F)cnc12", "note": "(mixture of isomers) [I-442]", "TYK2 MSD OCI-LY10 Dmax %": "C (C (75 to 50%))"},
      {"smiles": "CNc1cc(N2CCc3c(-c4ccc(CN5CCC6(CCN(C(=O)c7cc(Cl)c(F)c(N8CCC(=O)NC8=O)c7)CC6)C(F)(F)C5)cn4)cccc32)nn2c(C(=O)N[C@@H]3C[C@@H]3F)cnc12", "note": "[I-792]", "TYK2 MSD OCI-LY10 Dmax %": "B (B (90 to >75%))"}
    ]},
    {"molecular_target": "T1, TYK2", "experiment": "TYK2 MSD degradation in OCI-LY10 cells", "assay_type": "cell-based", "conditions": "OCI-LY10 cells, 4 to 24 hours incubation, read-out: TYK2 MSD OCI-LY10 Rel-DC50", "procedure": "as §1, §2, §3", "units": {"DC50": "nM"}, "values": [
      {"smiles": "CNc1cc(N2CCc3c(-c4ccc(CN5CCC(N6CCC(CC#Cc7ccc8c(c7)n(C)c(=O)n8C7CCC(=O)NC7=O)CC6)C(F)(F)C5)cn4)cccc32)nn2c(C(=O)N[C@@H]3C[C@@H]3F)cnc12", "note": "(stereo partly drawn) [I-469]", "DC50": "< 10"},
      {"smiles": "CNc1cc(N2CCc3c(C#CCN4CCC(N5CCC(C6CCN(c7ccc8c(c7)n(C)c(=O)n8C7CCC(=O)NC7=O)CC6)CC5)C(F)(F)C4)cccc32)nn2c(C(=O)N[C@@H]3C[C@@H]3F)cnc12", "note": "(stereo partly drawn) [I-467]", "DC50": "< 10"},
      {"smiles": "CNc1cc(N2CCc3c(-c4ccc(CN5CC6(CCN(Cc7c(C)ccc(N8CCC(=O)NC8=O)c7C)CC6(F)F)C5)cn4)cccc32)nn2c(C(=O)N[C@@H]3C[C@@H]3F)cnc12", "note": "[I-458]", "DC50": "< 10"},
      {"smiles": "CNc1cc(N2CCc3c(N4CC(CN5CCC6(CCN(C(=O)c7ccc(Cl)c(N8CCC(=O)NC8=O)c7)CC6)C(F)(F)C5)C4)cccc32)nn2c(C(=O)N[C@@H]3C[C@@H]3F)cnc12", "note": "[I-783]", "DC50": "< 10"},
      {"smiles": "CNc1cc(-c2cn(CC3CCN(CCC4CCN(C(=O)c5ccc(Cl)c(N6CCC(=O)NC6=O)c5)CC4)CC3)c3ccccc23)nn2c(C(=O)N[C@@H]3C[C@@H]3F)cnc12", "note": "[I-771]", "DC50": "< 10"},
      {"smiles": "CNc1cc(N2CCc3c(-c4ccc(N5CCN(CC6CCN(c7ccc(Cl)c(C8CCC(=O)NC8=O)c7)CC6)CC5)cn4)cccc32)nn2c(C(=O)NC3CC3F)cnc12", "note": "(mixture of isomers) [I-442]", "DC50": "< 10"},
      {"smiles": "CNc1cc(N2CCc3c(-c4ccc(CN5CCC6(CCN(C(=O)c7cc(Cl)c(F)c(N8CCC(=O)NC8=O)c7)CC6)C(F)(F)C5)cn4)cccc32)nn2c(C(=O)N[C@@H]3C[C@@H]3F)cnc12", "note": "[I-792]", "DC50": "< 10"}
    ]},
    {"molecular_target": "T1, TYK2", "experiment": "TYK2 MSD degradation in OCI-LY10 cells", "assay_type": "cell-based", "conditions": "TYK2 degradation in OCI-LY10 cells, 4 to 24 hours incubation", "procedure": "as §1, §2, §3", "values": [
      {"smiles": "CNc1cc(N2CCc3c(-c4ncc(CN5CC6(CCN(C(=O)c7cc(F)c(Cl)c(N8CCC(=O)NC8=O)c7)CC6(F)F)C5)cc4F)cccc32)nn2c(C(=O)N[C@@H]3C[C@@H]3F)cnc12", "note": "[I-994]", "TYK2 MSD OCI-LY10 Dmax %": "A (A (>90%))"},
      {"smiles": "CNc1cc(N2CCc3c(CC4CCC5(CC4)CCN(C4CCN(C(=O)c6ccc(Cl)c(N7CCC(=O)NC7=O)c6)CC4(F)F)CC5)cccc32)nn2c(C(=O)N[C@@H]3C[C@@H]3F)cnc12", "note": "(stereo partly drawn) [I-800]", "TYK2 MSD OCI-LY10 Dmax %": "D (D (<50%))"},
      {"smiles": "CNc1cc(N2CCc3c(-c4ccc(CN5CCC(N6CCN(c7ccc8c(c7)n(C)c(=O)n8C7CCC(=O)NC7=O)CC6)C(F)(F)C5)cn4)cc(F)cc32)nn2c(C(=O)NC3CC3)cnc12", "note": "(stereo not drawn) [I-61]", "TYK2 MSD OCI-LY10 Dmax %": "B (B (90 to >75%))"},
      {"smiles": "CNc1cc(N2CCc3c(-c4cc(N5CCC6(CCN(C(=O)c7ccc(Cl)c(N8CCC(=O)NC8=O)c7)CC6)CC5)ccn4)cccc32)nn2c(C(=O)N[C@@H]3C[C@@H]3F)cnc12", "note": "[I-248]", "TYK2 MSD OCI-LY10 Dmax %": "C (C (75 to 50%))"},
      {"smiles": "CNc1cc(N2CCc3c(-c4ccc(CN5CCC6(CC5)CCN(c5cc(Cl)cc(NC7CCC(=O)NC7=O)c5)CC6)cn4)cccc32)nn2c(C(=O)NC3CC3)cnc12", "note": "(stereo not drawn) [I-65]", "TYK2 MSD OCI-LY10 Dmax %": "D (D (<50%))"},
      {"smiles": "CNc1cc(N2CCc3c(-c4ncc(C(=O)N5CC6(CCN(C(=O)c7cc(C)c(Cl)c(N8CCC(=O)NC8=O)c7)CC6)C5)cc4F)cccc32)nn2c(C(=O)N[C@@H]3CC[C@H]3OC)cnc12", "note": "[I-1140]", "TYK2 MSD OCI-LY10 Dmax %": "A (A (>90%))"},
      {"smiles": "CNc1cc(N2CCc3c(-c4ncc([C@@H](C)N5CC6(CCN(C(=O)c7cc(C)c(Cl)c(N8CCC(=O)NC8=O)c7)CC6(F)F)C5)cc4F)cccc32)nn2c(C(=O)N[C@@H]3CC[C@H]3OC)cnc12", "note": "[I-1144]", "TYK2 MSD OCI-LY10 Dmax %": "B (B (90 to >75%))"},
      {"smiles": "CNc1cc(N2CCc3c(-c4ccc(CN5CC6(CCN(C(=O)c7ccc(Cl)c(N8CCC(=O)NC8=O)c7)CC6(F)F)C5)cn4)cccc32)nn2c(C(=O)N[C@H]3C[C@@H](F)C3)cnc12", "note": "[I-883]", "TYK2 MSD OCI-LY10 Dmax %": "A (A (>90%))"}
    ]},
    {"molecular_target": "T1, TYK2", "experiment": "TYK2 MSD degradation in OCI-LY10 cells", "assay_type": "cell-based", "conditions": "TYK2 degradation in OCI-LY10 cells, 4 to 24 hours incubation, read-out: TYK2 MSD OCI-LY10 Rel-DC50", "procedure": "as §1, §2, §3", "units": {"DC50": "nM"}, "values": [
      {"smiles": "CNc1cc(N2CCc3c(-c4ncc(CN5CC6(CCN(C(=O)c7cc(F)c(Cl)c(N8CCC(=O)NC8=O)c7)CC6(F)F)C5)cc4F)cccc32)nn2c(C(=O)N[C@@H]3C[C@@H]3F)cnc12", "note": "[I-994]", "DC50": "< 1"},
      {"smiles": "CNc1cc(N2CCc3c(CC4CCC5(CC4)CCN(C4CCN(C(=O)c6ccc(Cl)c(N7CCC(=O)NC7=O)c6)CC4(F)F)CC5)cccc32)nn2c(C(=O)N[C@@H]3C[C@@H]3F)cnc12", "note": "(stereo partly drawn) [I-800]", "DC50": "> 100"},
      {"smiles": "CNc1cc(N2CCc3c(-c4ccc(CN5CCC(N6CCN(c7ccc8c(c7)n(C)c(=O)n8C7CCC(=O)NC7=O)CC6)C(F)(F)C5)cn4)cc(F)cc32)nn2c(C(=O)NC3CC3)cnc12", "note": "(stereo not drawn) [I-61]", "DC50": "< 10"},
      {"smiles": "CNc1cc(N2CCc3c(-c4cc(N5CCC6(CCN(C(=O)c7ccc(Cl)c(N8CCC(=O)NC8=O)c7)CC6)CC5)ccn4)cccc32)nn2c(C(=O)N[C@@H]3C[C@@H]3F)cnc12", "note": "[I-248]", "DC50": "< 10"},
      {"smiles": "CNc1cc(N2CCc3c(-c4ccc(CN5CCC6(CC5)CCN(c5cc(Cl)cc(NC7CCC(=O)NC7=O)c5)CC6)cn4)cccc32)nn2c(C(=O)NC3CC3)cnc12", "note": "(stereo not drawn) [I-65]", "DC50": "> 100"},
      {"smiles": "CNc1cc(N2CCc3c(-c4ncc(C(=O)N5CC6(CCN(C(=O)c7cc(C)c(Cl)c(N8CCC(=O)NC8=O)c7)CC6)C5)cc4F)cccc32)nn2c(C(=O)N[C@@H]3CC[C@H]3OC)cnc12", "note": "[I-1140]", "DC50": "< 1"},
      {"smiles": "CNc1cc(N2CCc3c(-c4ncc([C@@H](C)N5CC6(CCN(C(=O)c7cc(C)c(Cl)c(N8CCC(=O)NC8=O)c7)CC6(F)F)C5)cc4F)cccc32)nn2c(C(=O)N[C@@H]3CC[C@H]3OC)cnc12", "note": "[I-1144]", "DC50": "< 1"},
      {"smiles": "CNc1cc(N2CCc3c(-c4ccc(CN5CC6(CCN(C(=O)c7ccc(Cl)c(N8CCC(=O)NC8=O)c7)CC6(F)F)C5)cn4)cccc32)nn2c(C(=O)N[C@H]3C[C@@H](F)C3)cnc12", "note": "[I-883]", "DC50": "< 1"}
    ]}
  ]
}
